One test concerns KB. The test can be described thus: Antitumor activity against human KB cells by WST-1 assay. The format is functional, cell-based. Background: Tetrazolium assays rely on reduction of a dye to a coloured formazan, in cell work by metabolically active cells.
Test [1] can be described thus: Antitumor activity against mouse C26 cells by WST-1 assay. It is filed as functional, cell-based.
Another test relates to HepG2. The experiment in a line: Antitumor activity against human HepG2 cells by WST-1 assay. The format is functional, cell-based.
A short description of test [2]: Ratio of compound IC50 to 10-hydroxycamptothecin IC50 for mouse C26 cells. It is filed as functional.

7 compounds from ChEMBL document CHEMBL1759914, “The solvolysis of topotecan in alcohols and acetic anhydride” (Bioorg Med Chem Lett, 2011) can be followed below.

Consider `CCOCc1c(O)ccc2nc3c(cc12)Cn1c-3cc2c(c1=O)COC(=O)[C@]2(O)CC`, for which the values for the 50% inhibitory concentration (IC50) (in the test with KB; in test [1]; in the test with HepG2) were 19.7 µM, 29.1 µM and 3.91 µM, respectively.
With `CC[C@@]1(O)C(=O)OCc2c1cc1n(c2=O)Cc2cc3c(COC(C)=O)c(OC(C)=O)ccc3nc2-1`, in test [2], the “Ratio IC50” value is on record as 3. The IC50 turned out to be 0.794 µM with KB, 0.157 µM in test [1] and 1 µM in the test on HepG2.
With `CC[C@@]1(O)C(=O)OCc2c1cc1n(c2=O)Cc2cc3c(COC)c(O)ccc3nc2-1`, the IC50 in the test with KB stood at 25.4 µM; in test [1], 101 µM; in the test on HepG2 it was 92.1 µM.
As for `CC[C@@]1(O)C(=O)OCc2c1cc1n(c2=O)Cc2cc3c(COC(C)C)c(O)ccc3nc2-1`, the IC50 was found to be 7.25 µM in the test on KB, 3.88 µM in test [1] and 13.5 µM in the test on HepG2.
The corresponding values for `CC[C@@]1(O)C(=O)OCc2c1cc1n(c2=O)Cc2cc3c(COC(C)(C)C)c(O)ccc3nc2-1` are 1.38 µM, 0.273 µM and 0.802 µM.
The corresponding values for `CC[C@@]1(OC(C)=O)C(=O)OCc2c1cc1n(c2=O)Cc2cc3c(COC(C)=O)c(OC(C)=O)ccc3nc2-1` are 1.15 µM, 0.424 µM and 1.31 µM.
For the compound `CC[C@@]1(O)C(=O)OCc2c1cc1n(c2=O)Cc2cc3cc(O)ccc3nc2-1` [HYDROXYCAMPTOTHECIN], the results for the IC50 (in the test on KB; in test [1]; in the test with HepG2) were 0.829 µM, 0.496 µM and 0.981 µM, respectively.

What is called IC50 is the concentration at which inhibition is half-maximal. A high value points to weaker potency.
